# Test results from paper PMC12802263 (mBio, 2025).
# pKd: −log10 of the molar value.
# How the values were obtained:
# [1] = biological target: CapV (Vibrio cholerae, UniProt Q9KVG8); conditions: 50 mM Na3PO4, pH 7.4, 300 mM NaCl, 10% glycerol, 37 °C
# [2] = biological target: DncV (Vibrio cholerae, UniProt Q9KVG7); assay: biochemical
# Sequence of DncV (Q9KVG7 whole entry, looked up): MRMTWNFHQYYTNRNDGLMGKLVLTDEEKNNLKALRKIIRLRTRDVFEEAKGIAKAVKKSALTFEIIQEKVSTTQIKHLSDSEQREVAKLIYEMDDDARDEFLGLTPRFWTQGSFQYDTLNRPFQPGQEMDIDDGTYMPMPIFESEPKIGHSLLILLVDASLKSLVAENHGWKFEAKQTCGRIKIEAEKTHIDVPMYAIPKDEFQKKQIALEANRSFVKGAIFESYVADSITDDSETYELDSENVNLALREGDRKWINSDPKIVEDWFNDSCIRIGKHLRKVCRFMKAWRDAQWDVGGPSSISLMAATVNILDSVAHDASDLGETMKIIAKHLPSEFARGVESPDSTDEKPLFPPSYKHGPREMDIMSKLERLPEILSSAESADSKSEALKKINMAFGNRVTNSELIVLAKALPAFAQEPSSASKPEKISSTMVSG
# Sequence of CapV (Q9KVG8 whole entry, looked up): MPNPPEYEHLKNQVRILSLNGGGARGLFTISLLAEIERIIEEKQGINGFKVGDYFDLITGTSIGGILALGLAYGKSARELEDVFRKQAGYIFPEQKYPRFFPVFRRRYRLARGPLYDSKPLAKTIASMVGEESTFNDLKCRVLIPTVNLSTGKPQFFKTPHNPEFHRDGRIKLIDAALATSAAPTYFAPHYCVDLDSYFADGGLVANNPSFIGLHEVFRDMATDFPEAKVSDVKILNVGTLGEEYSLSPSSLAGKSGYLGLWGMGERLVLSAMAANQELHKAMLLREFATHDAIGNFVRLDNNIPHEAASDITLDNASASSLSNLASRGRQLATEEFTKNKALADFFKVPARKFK
SMILES,fluorogenic phospholipase assay (ex 550 / em 591 nm) [1],pKd [2]
CCCC(=O)Oc1ccc2nc3ccc(=O)cc-3oc2c1 [Resorufin butyrate],phospholipase activity of the proteins CapV and CapV^S62A was detected using the fluorescent substrate Resorufin,
Nc1nc2c(ncn2[C@@H]2O[C@H](COP(=O)(O)OP(=O)(O)OP(=O)(O)O)[C@@H](O)[C@H]2O)c(=O)[nH]1 [GTP],,5.58
"Nc1nc2c(c(=O)[nH]1)N[C@@H](CNc1ccc(C(=O)N[C@@H](CCC(=O)O)C(=O)O)cc1)CN2 [THF, tetrahydrofolate]",,5.44
